Source: a compilation of properties of binary mixtures (doi:10.1021/acs.jced.2c00024)

Test: xn = mol fraction of the nth substance listed
Settings: 101 kPa

O=C1CCCO1 + [S-]C#N.COCCN1C=[N+](C=C1)C
x2 = 0
Settings | viscosity [mPa·s]
288.15 K | 2.02
293.15 K | 1.86
298.15 K | 1.72
303.15 K | 1.59
308.15 K | 1.48
318.15 K | 1.29
323.15 K | 1.21
328.15 K | 1.14
333.15 K | 1.08
338.15 K | 1.02
343.15 K | 0.97

COCCn1cc[n+](C)c1.N#C[S-] + O=C1CCCO1
Settings | electrical conductivity [S/m] | viscosity [mPa·s]
288.15 K, x1 = 0.1027 | 1.29 | 3.05
288.15 K, x1 = 0.1999 | 1.4 | 4.19
288.15 K, x1 = 0.3001 | 1.28 | 5.5
288.15 K, x1 = 0.4001 | 1.08 | 7.8
288.15 K, x1 = 0.5006 | 0.874 | 13
288.15 K, x1 = 0.6015 | 0.686 | 21.8
288.15 K, x1 = 0.8038 | 0.399 | 51
288.15 K, x1 = 0.9012 | 0.301 | 68
293.15 K, x1 = 0.1027 | 1.41 | 2.73
293.15 K, x1 = 0.1999 | 1.55 | 3.64
293.15 K, x1 = 0.3001 | 1.44 | 4.79
293.15 K, x1 = 0.4001 | 1.24 | 6.7
293.15 K, x1 = 0.5006 | 1.02 | 10.8
293.15 K, x1 = 0.6015 | 0.819 | 17.3
293.15 K, x1 = 0.7036 | 0.645 | 26.8
293.15 K, x1 = 0.9012 | 0.395 | 53
293.15 K, x1 = 1 | 0.315 | 67
298.15 K, x1 = 0.1027 | 1.54 | 2.44
298.15 K, x1 = 0.1999 | 1.72 | 3.18
298.15 K, x1 = 0.4001 | 1.42 | 5.8
298.15 K, x1 = 0.5006 | 1.19 | 9
298.15 K, x1 = 0.6015 | 0.975 | 13.9
298.15 K, x1 = 0.7036 | 0.788 | 21.1
298.15 K, x1 = 0.8038 | 0.636 | 30.3
298.15 K, x1 = 0.9012 | 0.516 | 42
303.15 K, x1 = 0.1027 | 1.68 | 2.21
303.15 K, x1 = 0.1999 | 1.89 | 2.82
303.15 K, x1 = 0.4001 | 1.61 | 5.1
303.15 K, x1 = 0.5006 | 1.38 | 7.7
303.15 K, x1 = 0.6015 | 1.16 | 11.5
303.15 K, x1 = 0.7036 | 0.958 | 17.1
303.15 K, x1 = 0.8038 | 0.785 | 24.4
303.15 K, x1 = 0.9012 | 0.642 | 33.3
303.15 K, x1 = 1 | 0.52 | 42.1
308.15 K, x1 = 0.1027 | 1.82 | 2
308.15 K, x1 = 0.1999 | 2.08 | 2.51
308.15 K, x1 = 0.3001 | 2.02 | 3.27
308.15 K, x1 = 0.4001 | 1.82 | 4.49
308.15 K, x1 = 0.5006 | 1.59 | 6.5
308.15 K, x1 = 0.7036 | 1.14 | 14.1
308.15 K, x1 = 0.8038 | 0.951 | 19.9
308.15 K, x1 = 1 | 0.653 | 34.4
313.15 K, x1 = 0.1999 | 2.27 | 2.25
313.15 K, x1 = 0.3001 | 2.21 | 2.89
313.15 K, x1 = 0.4001 | 2.02 | 3.94
313.15 K, x1 = 0.6015 | 1.56 | 8.2
313.15 K, x1 = 0.8038 | 1.12 | 16.5
313.15 K, x1 = 0.9012 | 0.95 | 22.5
313.15 K, x1 = 1 | 0.795 | 28.6
318.15 K, x1 = 0.1027 | 2.16 | 1.66
318.15 K, x1 = 0.1999 | 2.47 | 2.03
318.15 K, x1 = 0.5006 | 2.03 | 4.92
318.15 K, x1 = 0.6015 | 1.78 | 7
318.15 K, x1 = 0.7036 | 1.54 | 10.2
318.15 K, x1 = 0.8038 | 1.32 | 14
318.15 K, x1 = 0.9012 | 1.13 | 18.9
318.15 K, x1 = 1 | 0.954 | 23.7
323.15 K, x1 = 0.1027 | 2.35 | 1.53
323.15 K, x1 = 0.3001 | 2.66 | 2.34
323.15 K, x1 = 0.6015 | 2 | 6.1
323.15 K, x1 = 0.8038 | 1.51 | 11.9
323.15 K, x1 = 0.9012 | 1.31 | 16
323.15 K, x1 = 1 | 1.12 | 20
328.15 K, x1 = 0.1027 | 2.55 | 1.41
328.15 K, x1 = 0.1999 | 2.92 | 1.69
328.15 K, x1 = 0.3001 | 2.9 | 2.1
328.15 K, x1 = 0.4001 | 2.74 | 2.79
328.15 K, x1 = 0.5006 | 2.5 | 3.75
328.15 K, x1 = 0.6015 | 2.25 | 5.4
328.15 K, x1 = 0.7036 | 1.99 | 7.6
328.15 K, x1 = 0.8038 | 1.74 | 10.4
328.15 K, x1 = 1 | 1.32 | 17.2
333.15 K, x1 = 0.1999 | 3.15 | 1.56
333.15 K, x1 = 0.3001 | 3.16 | 1.9
333.15 K, x1 = 0.4001 | 2.98 | 2.5
333.15 K, x1 = 0.5006 | 2.75 | 3.35
333.15 K, x1 = 0.6015 | 2.48 | 4.81
333.15 K, x1 = 0.7036 | 2.21 | 6.8
333.15 K, x1 = 0.8038 | 1.95 | 9.2
333.15 K, x1 = 0.9012 | 1.72 | 12.1
333.15 K, x1 = 1 | 1.51 | 14.8
338.15 K, x1 = 0.1027 | 2.98 | 1.21
338.15 K, x1 = 0.1999 | 3.41 | 1.43
338.15 K, x1 = 0.3001 | 3.42 | 1.73
338.15 K, x1 = 0.4001 | 3.26 | 2.23
338.15 K, x1 = 0.5006 | 3.02 | 2.95
338.15 K, x1 = 0.8038 | 2.19 | 8.1
338.15 K, x1 = 0.9012 | 1.95 | 10.6
338.15 K, x1 = 1 | 1.72 | 12.9
343.15 K, x1 = 0.1027 | 3.21 | 1.13
343.15 K, x1 = 0.1999 | 3.66 | 1.33
343.15 K, x1 = 0.3001 | 3.71 | 1.62
343.15 K, x1 = 0.4001 | 3.54 | 2.06
343.15 K, x1 = 0.6015 | 3 | 3.86
343.15 K, x1 = 0.8038 | 2.42 | 7.3
343.15 K, x1 = 0.9012 | 2.15 | 9.5
343.15 K, x1 = 1 | 1.92 | 11.3
